{
  "source": "patent US20250281435A1",
  "about": "“CHEWABLE GUMMY CONTAINING BETA-HYDROXY BETA-METHYLBUTYRIC ACID (HMB)” (Concept Matrix Solutions, priority 2024, published 2025)",
  "origin": "cited, not measured here",
  "settings": "oral ingestion",
  "data": [
    {"smiles": "CC(C)(O)CC(=O)O", "note": "[HMB, 3-hydroxy-3-methylbutanoic acid]", "values": [
      {"measurement": "time of peak plasma concentration after ingestion", "result": "1 to 2", "unit": "h"}
    ]}
  ]
}
